Experimental data from ChEMBL document CHEMBL1201862, “PubChem BioAssay data set” (2004).
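Where inhibition never reached the appropriate level, the endpoint shown equals the highest concentration tested. Otherwise, values were interpolated linearly from a five-concentration, 48-hour dose response in 96-well plates. GI50 = concentration required for 50% inhibition of growth.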 The source made the active and inactive calls. Rule as the data show it: active = GI50 up to about 1.1 µM and inactive = higher.

What was measured:
Experiment in all cases: NCI anticancer screen, dose series, 48 h
CAKI-1 = system: CAKI-1
COLO 205 = system: COLO 205
EKVX = system: EKVX
HOP-62 = system: HOP-62
Hs-578T = system: Hs-578T
K562 = system: K562
M14 = system: M14
MDA-N = system: MDA-N
Malme-3M = system: Malme-3M
NCI-H460 = system: NCI-H460
NCI/ADR-RES = system: NCI/ADR-RES
OVCAR-4 = system: OVCAR-4
OVCAR-5 = system: OVCAR-5
SF-268 = system: SF-268
SK-MEL-28 = system: SK-MEL-28
SK-MEL-2 = system: SK-MEL-2
SK-OV-3 = system: SK-OV-3
SW-620 = system: SW-620
T47D = system: T47D
MOLT-4 = system: MOLT-4

SMILES	GI50 (CAKI-1)	GI50 (COLO 205)	GI50 (EKVX)	GI50 (HOP-62)	GI50 (Hs-578T)	GI50 (K562)	GI50 (M14)	GI50 (MDA-N)	GI50 (Malme-3M)	GI50 (NCI-H460)	GI50 (NCI/ADR-RES)	GI50 (OVCAR-4)	GI50 (OVCAR-5)	GI50 (SF-268)	GI50 (SK-MEL-28)	GI50 (SK-MEL-2)	GI50 (SK-OV-3)	GI50 (SW-620)	GI50 (T47D)	GI50 (MOLT-4)
C/C(=N\N=C(\N)OB(F)F)c1ccccn1	> 100 µM (inactive)	> 100 µM (inactive)	18.5 µM (inactive)	37.5 µM (inactive)	28.6 µM (inactive)	46.7 µM (inactive)	> 100 µM (inactive)	71.9 µM (inactive)	> 100 µM (inactive)	40.8 µM (inactive)	> 100 µM (inactive)	35 µM (inactive)	> 100 µM (inactive)	> 100 µM (inactive)	> 100 µM (inactive)	> 100 µM (inactive)	> 10 µM (inactive)	> 100 µM (inactive)	> 100 µM (inactive)	
Cn1nnnc1SC(F)(F)c1nc2ccccc2o1	> 100 µM (inactive)	> 100 µM (inactive)		> 100 µM (inactive)	> 100 µM (inactive)	> 100 µM (inactive)	> 100 µM (inactive)	> 100 µM (inactive)	> 100 µM (inactive)	> 100 µM (inactive)	> 100 µM (inactive)	> 100 µM (inactive)	> 100 µM (inactive)	> 100 µM (inactive)	> 100 µM (inactive)	> 100 µM (inactive)	> 100 µM (inactive)	> 100 µM (inactive)	> 100 µM (inactive)	24.1 µM (inactive)
CC1(C)[N+]([O-])=[N+]([O-])C1(C)O (stereo unspecified)	> 100 µM (inactive)	> 100 µM (inactive)	> 100 µM (inactive)		> 100 µM (inactive)	> 100 µM (inactive)	> 100 µM (inactive)	> 100 µM (inactive)	> 100 µM (inactive)	> 100 µM (inactive)	> 100 µM (inactive)	> 100 µM (inactive)	> 100 µM (inactive)	> 100 µM (inactive)	> 100 µM (inactive)	> 100 µM (inactive)	> 100 µM (inactive)	> 100 µM (inactive)	> 100 µM (inactive)	> 100 µM (inactive)
COc1cc([C@H]2c3[nH]c4ccccc4c3C[C@H]3COC(=O)N32)cc(OC)c1O	0.0395 µM (active)	0.166 µM (active)	0.8 µM (active)	0.0462 µM (active)	0.0335 µM (active)	0.0153 µM (active)	< 0.0386 µM (active)	< 0.01 µM (active)	3.95 µM (inactive)	0.0312 µM (active)	0.0667 µM (active)	39.3 µM (inactive)	13.3 µM (inactive)	0.0221 µM (active)	1.66 µM (inactive)			0.0268 µM (active)	42.4 µM (inactive)	0.0488 µM (active)
C=C1CCCC(C)(C)[C@H]1C/C=C1\CCOC1=O	16.6 µM (inactive)	19.3 µM (inactive)	15.9 µM (inactive)	17.6 µM (inactive)	16.9 µM (inactive)	11.9 µM (inactive)	17.5 µM (inactive)	17.9 µM (inactive)	13.5 µM (inactive)	11.8 µM (inactive)	10.5 µM (inactive)	11 µM (inactive)		9.04 µM (inactive)	16.1 µM (inactive)	63.7 µM (inactive)	10.5 µM (inactive)	18.7 µM (inactive)	54.2 µM (inactive)	10.6 µM (inactive)
CCCCc1ccc(NC(=N)N)cc1	28.4 µM (inactive)	19 µM (inactive)	30 µM (inactive)		37.1 µM (inactive)	12.6 µM (inactive)	24.2 µM (inactive)	27.7 µM (inactive)	38.8 µM (inactive)	20.2 µM (inactive)	29.9 µM (inactive)	25.4 µM (inactive)	50.6 µM (inactive)	40.2 µM (inactive)	58.2 µM (inactive)	47.6 µM (inactive)	41.5 µM (inactive)	44.5 µM (inactive)	31.6 µM (inactive)	
CC(=O)O/N=C1\C=Cc2c(no[n+]2[O-])C1=O	20.5 µM (inactive)	9.23 µM (inactive)	17.3 µM (inactive)	38.3 µM (inactive)	20.8 µM (inactive)	35 µM (inactive)	18.6 µM (inactive)	17.6 µM (inactive)	14.7 µM (inactive)	34.7 µM (inactive)	27.6 µM (inactive)	17.2 µM (inactive)	18.3 µM (inactive)	20.8 µM (inactive)	21.6 µM (inactive)	17.8 µM (inactive)		3.37 µM (inactive)	25.6 µM (inactive)	10.4 µM (inactive)
